Experimental data taken from patent US7825264B2, “Substituted heterocycles, their use as medicament, and pharmaceutical preparations comprising them” (sanofi-aventis, priority 2005, dated 2010).

How the values were obtained:
Human Kv1.5 channels = target: T1, Human Kv1.5 channels (Homo sapiens, UniProt P22460); assay: Activity on the Kv1.5 channel: two-microelectrode voltage clamp on Xenopus oocytes expressing Kv1.5; format: cell-based; settings: human Kv1.5 expressed in Xenopus oocytes, room temperature, Hill equation; read-out: Kv1.5 IC-50
T1 construct: expressed in transfected cells; host or cells: Xenopus laevis oocytes injected with RNA synthesized in vitro
Description: Determination of the Activity on the Kv1.5 Channel
Human Kv1.5 channels were expressed in xenopus oocytes. For this purpose, firstly oocytes were isolated from Xenopus laevis and defolliculated. Kv1.5-encoding RNA synthesized in vitro was then injected into these oocytes. After Kv1.5 protein expression for 1-7 days, Kv1.5 currents were measured on the oocytes using the two-microelectrode voltage clamp technique. The Kv1.5 channels were in this case usually activated with voltage jumps lasting 500 ms to 0 mV and 40 mV. A solution of the following composition flowed through the bath: NaCl 96 mM, KCl 2 mM, CaCl2 1.8 mM, MgCl2 1 mM, HEPES 5 mM (titrated to pH 7.4 with NaOH). These experiments were carried out at room temperature. The following were employed for data acquisition and analysis: Geneclamp amplifier (Axon Instruments, Foster City, USA) and MacLab D/A converter and software (ADInstruments, Castle Hill, Australia). The substances of the invention were tested by adding them in various concentrations to the bath solution. The effects of the substances were calculated as percent inhibition of the Kv1.5 control current which was obtained when no substance was added to the solution. The data were then extrapolated using the Hill equation in order to determine the inhibitory concentrations IC50 for the respective substances.

Human TASK-1 channels = Human TASK-1 channels (UniProt O35111); assay: Activity on the TASK-1 channel: two-microelectrode voltage clamp on Xenopus oocytes expressing TASK-1; format: cell-based; settings: TASK-1 expressed in Xenopus oocytes, room temperature, Hill equation; read-out: mTask-1 IC-50

T1 sequence (P22460 whole entry): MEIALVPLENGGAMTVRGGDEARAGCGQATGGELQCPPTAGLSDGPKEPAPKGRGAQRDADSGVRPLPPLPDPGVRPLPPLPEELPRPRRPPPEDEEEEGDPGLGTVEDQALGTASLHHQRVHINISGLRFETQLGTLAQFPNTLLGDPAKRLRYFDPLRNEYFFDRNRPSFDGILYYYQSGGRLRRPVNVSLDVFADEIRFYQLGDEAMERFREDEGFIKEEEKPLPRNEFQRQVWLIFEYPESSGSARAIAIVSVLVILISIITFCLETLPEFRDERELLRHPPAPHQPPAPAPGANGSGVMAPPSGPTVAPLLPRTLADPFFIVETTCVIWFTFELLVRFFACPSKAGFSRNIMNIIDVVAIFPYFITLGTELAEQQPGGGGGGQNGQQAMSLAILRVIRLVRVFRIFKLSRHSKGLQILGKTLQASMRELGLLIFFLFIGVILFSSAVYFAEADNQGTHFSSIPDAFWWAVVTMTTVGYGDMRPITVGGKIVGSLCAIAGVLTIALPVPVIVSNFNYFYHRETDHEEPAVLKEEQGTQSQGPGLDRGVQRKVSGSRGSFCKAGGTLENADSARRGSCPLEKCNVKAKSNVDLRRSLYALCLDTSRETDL

| SMILES | IC50 (Human Kv1.5 channels) [µM] | IC50 (Human TASK-1 channels) [µM] |
| --- | --- | --- |
| N#Cc1ccc(O[C@H](c2ccc(F)c(F)c2)[C@H](c2ccc(F)cc2)N2CCCC2=O)cc1 (racemic) [Example 4, 4-[(1R′,2S′)-1-(3,4-Difluorophenyl)-2-(4-fluorophenyl)-2-(2-oxopyrrolidin-1-yl)ethoxy]benzonitrile] | 3.9 | 2.3 |
| N#Cc1ccc(O[C@@H](c2cccc3cccnc23)[C@@H](c2ccc(F)cc2)N2CCCC2=O)cc1 (racemic) [Example 9, 4-[(1S′,2R′)-2-(4-Fluorophenyl)-2-(2-oxopyrrolidin-1-yl)-1-quinolin-8-ylethoxy]benzonitrile] | 4.2 | 0.4 |
| CO[C@H](c1ccc(Cl)cc1)[C@H](c1ccccc1)N1CCCC1=O (racemic) [Example 46] | 1.5 | 5.4 |
| O=C1CCCCN1[C@H](c1ccccc1)[C@@H](OCC1CC1)c1ccccc1 [Example 74] | 1.4 | – |
| CO[C@H](c1ccccc1)[C@H](c1ccccc1)N1CCCC1=O [Example 85] | 3.6 | – |
| COc1ccc(CO[C@@H](c2ccccc2)[C@@H](c2ccccc2)N2CCCCC2=O)cc1 [Example 103] | 6.6 | – |
| N#Cc1ccc(OC(c2ccnc3ccccc23)C(c2ccc(F)cc2)N2CCCC2=O)cc1 (centres unmarked) [Example 105] | 4.6 | – |
| O=C1CCCN1C(c1ccc(F)cc1)C(OCCCC(F)(F)F)c1cccc2cccnc12 (centres unmarked) [Example 111] | 8.8 | – |
| N#Cc1ccc(OC(c2ccc(C#N)cc2)C(c2ccc(F)cc2)N2CCCC2=O)cc1 (centres unmarked) [Example 113] | ~10 | – |
| C=CO[C@H](c1ccccc1)[C@H](c1ccccc1)N1CCCC1=O [Example 120, 1 S,2R-1-(1,2-Diphenyl-2-vinyloxyethyl)pyrrolidin-2-one] | 0.8 | – |
| C=CO[C@H](c1ccc(F)c(F)c1)[C@H](c1ccc(F)cc1)N1CCCC1=O [Example 121] | 0.9 | – |
